Among the data in patent publication US5753648A, “Tricyclic benzazepine vasopressin antagonists” (American Cyanamid Company, priority 1996, dated 1998) are inhibition and IC50 values, retold here.

Usually inhibition stands for the share of the control response that was lost under treatment. A low value points to a weak effect. By IC50 is commonly meant the concentration that inhibits the measured activity by half. The low end stands for inhibition by little substance, the high end for a need for much substance.

Each structure is given as a SMILES string.

Test [1] has as its target T1, Rat Kidney Medullary V2 Receptors (Rattus norvegicus, UniProt Q00788).
T1 construct: Medullary tissues from rat kidneys are dissected out; from tissue; host or cells: rat kidney medulla membranes
The test is described as follows: biochemical. Type of test: binding.

For test [2], the target named is T2, Vasopressin V1 receptor subtype in Human Platelet Membranes (Homo sapiens, UniProt P37288).
T2 construct: Frozen platelet rich plasma (PRP), received from the Hudson Valley Blood Services, are thawed to room temperature; tissue Hudson Valley Blood Services; host or cells: human platelets (platelet rich plasma)
The test is described as follows: Binding to Vasopressin V1 receptor subtype in Human Platelet Membranes. As for the experimental part: Radioligand Binding Experiments with Human Platelet Membranes
Platelet Source: Hudson Valley Blood Services,
Westchester Medical Center, Valhalla, N.Y.
Platelet Membrane Preparation
Frozen platelet rich plasma (PRP), received from the Hudson Valley Blood Services, are thawed to room temperature. The tubes containing the PRP are centrifuged at 16,000×g for 10 min. at 4° C. and the supernatant fluid discarded. The platelets resuspended in an equal volume of 50.0 mM Tris.HCl, pH 7.5 containing 120 mM NaCl and 20.0 mM EDTA. The suspension is recentrifuged at 16,000×g for 10 min. This washing step is repeated one more time. The wash discarded and the lysed pellets homogenized in low ionic strength buffer of Tris.HCl, 5.0 mM, pH 7.5 containing 5.0 mM EDTA. The homogenate is centrifuged at 39,000×g for 10 min. The resulting pellet is resuspended in Tris.HCl buffer, 70.0 mM, pH 7.5 and recentrifuged at 39,000×g for 10 min. The final pellet is resuspended in 50.0 mM Tris.HCl buffer pH 7.4 containing 120 mM NaCl and 5.0 mM KCl to give 1.0-2.0 mg protein per ml of suspension.
Binding to Vasopressin V1 receptor subtype in Human Platelet Membranes
In wells of 96 well format microtiter plate, add 100 μl of 50.0 mM Tris.HCl buffer containing 0.2% BSA and a mixture of protease inhibitors (aprotinin, leupeptin etc.). Then add 20 μl of [^3 H]Ligand (Manning or Arg^8 Vasopressin), to give final concentrations ranging from 0.01 to 10.0 nM. Initiate the binding by adding 80.0 μl of platelet suspension (approx. 100 μg protein). Mix all reagents by pipetting the mixture up and down a few times. Non specific binding is measured in the presence of 1.0 μM of unlabeled ligand (Manning or Arg^8 Vasopressin). Let the mixture stand undisturbed at room temperature for ninety (90) min. Upon this time, rapidly filter off the incubate under vacuum suction over GF/B filters, using a Brandel® Harvester. Determine the radioactivity caught on the filter disks by the addition of liquid scintillant and counting in a liquid scintillator.

For the next test, the target named is T3, oxytocin receptors (Rattus norvegicus, UniProt P70536).
T3 sequence (P70536 1-388): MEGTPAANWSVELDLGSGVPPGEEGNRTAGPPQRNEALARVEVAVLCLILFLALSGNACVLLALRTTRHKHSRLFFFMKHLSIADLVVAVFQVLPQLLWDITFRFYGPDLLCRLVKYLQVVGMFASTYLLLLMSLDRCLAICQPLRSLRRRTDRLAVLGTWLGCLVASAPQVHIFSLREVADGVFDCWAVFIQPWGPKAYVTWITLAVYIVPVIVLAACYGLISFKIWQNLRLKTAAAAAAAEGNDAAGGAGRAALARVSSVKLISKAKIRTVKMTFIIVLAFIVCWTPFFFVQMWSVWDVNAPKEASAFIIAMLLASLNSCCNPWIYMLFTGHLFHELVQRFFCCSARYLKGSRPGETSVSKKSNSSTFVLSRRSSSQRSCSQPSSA
Description: Oxytocin Receptor Binding.

In test [3] the target is T4, Human V2 Vasopressin Receptor (Homo sapiens, UniProt P30518).
T4 construct: expressed in transfected cells; host or cells: mouse fibroblast cell line LV-2
The test is described as follows: Binding to Membranes of Mouse Fibroblast Cell Line (LV-2) Transfected with the cDNA Expressing the Human V2 Vasopressin Receptor. The settings on record: ** human V2, LV-2 cell membranes; at 10 μM. The procedure: Binding to Membranes of Mouse Fibroblast Cell Line (LV-2) Transfected with the cDNA Expressing the Human V2 Vasopressin Receptor Membrane Preparation
Flasks of 175 ml capacity, containing attached cells grown to confluence, are cleared of culture medium by aspiration. The flasks containing the attached cells are rinsed with 2×5 ml of phosphate buffered saline (PBS) and the liquid aspirated off each time. Finally, 5 ml of an enzyme free dissociation Hank's based solution (Specialty Media, Inc., Lafayette, N.J.) is added and the flasks are left undisturbed for 2 min. The content of all flasks is poured into a centrifuge tube and the cells pelleted at 300×g for 15 min. The Hank's based solution is aspirated off and the cells homogenized with a polytron at setting #6 for 10 sec in 10.0 mM Tris.HCl buffer, pH 7.4 containing 0.25M sucrose and 1.0 mM EDTA. The homogenate is centrifuged at 1500×g for 10 min to remove ghost membranes. The supernatant fluid is centrifuged at 100,000×g for 60 min to pellet the receptor protein. Upon completion, the pellet is resuspended in a small volume of 50.0 mM Tris.HCl buffer, pH 7.4. The protein content is determined by the Lowry method and the receptor membranes are suspended in 50.0 mM Tris.HCl buffer containing 0.1 mM phenylmethylsulfonylfluoride (PMSF) and 0.2% bovine serum albumin (BSA) to give 2.5 mg receptor protein per ml of suspension.
For binding experiments, the following is added in μl volume to wells of a 96 well format of a microtiter plate: 100.0 μl of 100.0 mM Tris.HCl buffer containing 0.2% heat inactivated BSA, 10.0 mM MgCl2 and a mixture of protease inhibitors: leupeptin, 1.0 mg %; aprotinin, 1.0 mg %; 1,10-phenanthroline, 2.0 mg %; trypsin inhibitor, 10.0 mg % and 0.1 mM PMSF, 20.0 μl of [^3 H] Arginine^8, vasopressin (S.A. 75.0 Ci/mmole) at 0.8 nM and the reaction initiated by the addition of 80.0 μl of tissue membranes (200.0 μg tissue protein). The plates are left undisturbed on the bench top for 120 min to reach equilibrium. Non specific binding is assessed in the presence of 1.0 μm of unlabeled ligand, added in 20 μl volume. For test compounds, these are solubilized in 50% dimethylsulfoxide (DMSO) and added in 20.0 μl volume to a final incubation volume of 200 μl. Upon completion of binding, the content of each well is filtered off, using a Brandel® cell Harvester (Gaithersburg, Md.). The radioactivity trapped on the filter disk by the ligand-receptor complex is assessed by liquid scintillation counting in a Packard LS Counter, with an efficiency of 65% for tritium. The data are analyzed for IC50 values by the LUNDON-2 program for competition (LUNDON SOFTWARE, Ohio).

T1 sequence (Q00788 whole entry): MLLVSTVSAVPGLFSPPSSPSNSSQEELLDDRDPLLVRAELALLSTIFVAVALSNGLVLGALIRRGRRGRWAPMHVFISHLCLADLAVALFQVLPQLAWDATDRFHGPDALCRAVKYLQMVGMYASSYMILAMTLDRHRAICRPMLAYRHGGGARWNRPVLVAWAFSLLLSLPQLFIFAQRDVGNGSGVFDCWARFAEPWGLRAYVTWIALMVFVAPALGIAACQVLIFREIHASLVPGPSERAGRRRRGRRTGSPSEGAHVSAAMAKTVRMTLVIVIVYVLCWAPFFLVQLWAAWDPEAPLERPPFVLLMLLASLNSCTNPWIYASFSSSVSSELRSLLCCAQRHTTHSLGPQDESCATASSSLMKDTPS
T2 sequence (P37288 whole entry): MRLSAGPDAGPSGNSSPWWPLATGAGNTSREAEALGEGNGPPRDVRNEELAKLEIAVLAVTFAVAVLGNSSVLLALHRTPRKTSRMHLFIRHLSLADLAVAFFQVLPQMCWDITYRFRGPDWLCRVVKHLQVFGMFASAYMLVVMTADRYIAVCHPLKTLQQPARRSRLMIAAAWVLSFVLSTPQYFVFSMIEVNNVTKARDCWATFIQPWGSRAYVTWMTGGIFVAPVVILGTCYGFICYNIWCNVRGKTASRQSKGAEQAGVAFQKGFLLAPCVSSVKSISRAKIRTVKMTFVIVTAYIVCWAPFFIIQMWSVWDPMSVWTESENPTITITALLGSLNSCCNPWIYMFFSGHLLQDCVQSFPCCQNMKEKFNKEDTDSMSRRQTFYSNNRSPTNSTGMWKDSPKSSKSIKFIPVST
T4 sequence (P30518 whole entry): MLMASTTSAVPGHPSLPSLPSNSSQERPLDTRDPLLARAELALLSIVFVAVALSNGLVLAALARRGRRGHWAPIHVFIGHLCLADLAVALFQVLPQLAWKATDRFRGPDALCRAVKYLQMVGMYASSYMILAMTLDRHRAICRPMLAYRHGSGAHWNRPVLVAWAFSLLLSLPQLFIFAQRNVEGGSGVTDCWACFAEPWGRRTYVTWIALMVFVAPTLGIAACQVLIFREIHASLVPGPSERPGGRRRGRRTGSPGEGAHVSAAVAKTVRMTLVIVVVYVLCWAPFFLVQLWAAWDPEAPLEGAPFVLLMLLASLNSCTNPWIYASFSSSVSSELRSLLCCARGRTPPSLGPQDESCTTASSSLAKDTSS

For `CN(C)CCCNc1ncccc1C(=O)Nc1ccc(C(=O)N2Cc3cccn3Cc3ccccc32)cc1` [Example 335, N-[4-(5H-pyrrolo[2,1-c][1,4]benzodiazepin-10(11H)-ylcarbonyl)phenyl]-2-[(3-dimethylaminopropyl)amino]pyridine-3-carboxamide], the inhibition at 1 µM in test [1] (at 1 μM) was 60%; in test [2] (1.5 h, * human platelet V1, at 1 μM), 100%.
For `Cc1c(F)cccc1C(=O)Nc1ccc(C(=O)N2Cc3cccn3Cc3ccccc32)cn1` [Example 4], the 50% inhibitory concentration (IC50) in test [1] came to 1 nM; in test [2] (* V1 receptor subtype in human platelet) it was 44 nM; on oxytocin receptors (rat uterine membranes, [3H]oxytocin), 670 nM. At 10 µM the inhibition on oxytocin receptors was 100%.
As to `COc1cc(C(=O)Nc2ccc(C(=O)N3Cc4cccn4Cc4ccccc43)cn2)cc(OC)c1OC` [Example 5], the inhibition at 10 µM worked out at 51% in test [2] (1.5 h, * human platelet V1); 47% in test [3]; 93% on oxytocin receptors.
On to `COc1cc(C(=O)Nc2ccc(C(=O)N3Cc4ccc(CN(C)C)n4Cc4ccccc43)cn2)cc(OC)c1OC` [Example 133, N-[5-[[3-[(Dimethylamino)methyl]-[5H-pyrrolo[2,1-c][1,4]benzodiazepin-10(11H)]yl]carbonyl]-2-pyridinyl]-3,4,5-trimethoxybenzamide], for which the inhibition at 10 µM in test [1] (at 10 μM) stood at 21%; in test [2] (1.5 h, * human platelet V1), 11%; at oxytocin receptors, 59%.
